Assays:
human recombinant HDAC6 = target: T1, human recombinant HDAC6 (Homo sapiens, UniProt Q9UBN7); experiment: Fluorogenic HDAC enzyme inhibition assay (ZMAL substrate), HDAC6; type: biochemical
T1 construct: purchased BPS Bioscience Inc. 50006
T1 sequence (Q9UBN7 1-1215): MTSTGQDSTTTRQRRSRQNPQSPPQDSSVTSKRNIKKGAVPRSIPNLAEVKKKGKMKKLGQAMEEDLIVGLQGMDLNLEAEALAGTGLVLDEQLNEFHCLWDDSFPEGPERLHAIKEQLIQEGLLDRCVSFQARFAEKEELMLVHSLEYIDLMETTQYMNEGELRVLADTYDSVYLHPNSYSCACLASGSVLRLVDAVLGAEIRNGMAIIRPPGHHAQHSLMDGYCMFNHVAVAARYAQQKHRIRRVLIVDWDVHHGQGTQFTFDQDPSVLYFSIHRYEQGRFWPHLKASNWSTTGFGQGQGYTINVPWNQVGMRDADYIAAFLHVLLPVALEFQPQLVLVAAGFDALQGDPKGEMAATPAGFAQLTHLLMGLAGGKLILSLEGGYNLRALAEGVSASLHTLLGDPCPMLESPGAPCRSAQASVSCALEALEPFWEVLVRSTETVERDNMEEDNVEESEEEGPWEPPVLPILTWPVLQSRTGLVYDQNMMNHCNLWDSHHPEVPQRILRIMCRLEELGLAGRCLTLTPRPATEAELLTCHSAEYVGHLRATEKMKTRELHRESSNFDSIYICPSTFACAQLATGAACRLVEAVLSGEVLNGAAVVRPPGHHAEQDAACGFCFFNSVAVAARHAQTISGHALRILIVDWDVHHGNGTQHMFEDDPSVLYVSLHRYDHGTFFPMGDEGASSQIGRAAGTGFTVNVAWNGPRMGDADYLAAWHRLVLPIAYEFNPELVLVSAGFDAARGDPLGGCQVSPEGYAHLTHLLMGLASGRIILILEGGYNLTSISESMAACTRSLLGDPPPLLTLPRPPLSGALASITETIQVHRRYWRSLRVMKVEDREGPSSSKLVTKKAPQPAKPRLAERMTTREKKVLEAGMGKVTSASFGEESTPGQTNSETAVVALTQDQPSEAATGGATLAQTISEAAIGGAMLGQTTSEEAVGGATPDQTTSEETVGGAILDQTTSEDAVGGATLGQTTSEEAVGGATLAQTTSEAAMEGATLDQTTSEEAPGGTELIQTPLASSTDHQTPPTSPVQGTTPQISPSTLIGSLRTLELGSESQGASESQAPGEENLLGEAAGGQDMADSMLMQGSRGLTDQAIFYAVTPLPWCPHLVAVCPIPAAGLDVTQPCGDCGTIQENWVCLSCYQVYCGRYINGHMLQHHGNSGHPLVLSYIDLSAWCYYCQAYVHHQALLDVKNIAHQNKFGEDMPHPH
Description: First, predilutions (100-fold final assay concentration) of test compounds or reference inhibitors were prepared. To this end, 3-fold serial dilutions of the respective DMSO stock solutions were prepared in DMSO using clear V-bottom 96-well microplates (Greiner Bio-One, Greiner AG, Kremsmünster, Austria). Predilutions designated for photolysis were irradiated for 10 min using the UV reactor described above. […] Next, 5.0 µL of these serial dilutions in assay buffer were transferred into 96-well microplates (OptiPlate-96 Black, PerkinElmer, Waltham, MA, USA). […] Fluorescence (excitation: 355 nm, emission: 460 nm) was measured using a FLUOstar OPTIMA microplate reader (BMG LABTECH GmbH, Ortenberg, Germany). IC50 values were determined by generating normalized dose–response curves using the built-in “log(inhibitor) vs. response (three parameters)” equation provided by GraphPad Prism (GraphPad Prism 9.0, San Diego, CA, USA). All compounds were tested in duplicates; reported mean IC50 values, including standard deviation, were calculated from at least two independent experiments.

A2780 cells = experiment: Annexin V/PI apoptosis assay (flow cytometry); type: cell-based, human; conditions: A2780, 0.5 µM, 48 or 72 h
Description: A2780 cells (4 × 10^4 cells/mL) were seeded in 6-well plates (Starlab GmbH, Hamburg, Germany) and allowed to attach. First, dilutions (500 µM) in DMSO were prepared from the respective stock solutions in DMSO (10 mM). Predilutions for photolysis experiments were irradiated in clear U-bottom 96-well microplates (Greiner Bio-One, Greiner AG, Kremsmünster, Austria) for 10 min in the UV reactor described above. Subsequently, vehicle control (DMSO) or compounds, at a concentration of 0.5 µM, were added to the cells and incubated for 48 h and 72 h, respectively. The final volume was 3 mL, and the final DMSO concentration was 0.1%. Staining was performed in triplicate in two separate experiments using annexin V and propidium iodide and analyzed by flow cytometry (Guava® easyCyte^TM, Luminex, Austin, TX, USA), according to the manufacturer’s protocol (BioLegend, San Diego, CA, USA).
Results were expressed as mean with standard deviation (SD). Statistical analysis was performed using GraphPad Prism (GraphPad Software, San Diego, CA, USA). Normality of the data was analyzed using the Shapiro–Wilk’s test. Statistical significance was assessed using one-way analysis of variance (ANOVA) with Tukey’s multiple comparison test. Differences were considered statistically significant at * p < 0.05, ** p < 0.01, *** p < 0.001.

COc1cc(CONC(=O)c2ccc(CN(CC(=O)NCc3ccccc3)C(=O)c3ccc(N(C)C)cc3)cc2)c([N+](=O)[O-])cc1OC [pc-I, N-[2-(Benzylamino)-2-oxoethyl]-N-(4-{[(4,5-dimethoxy-2-nitrobenzyl)oxy]carbamoyl}benzyl)-4-(dimethylamino)benzamide]
IC50 (human recombinant HDAC6; after UV irradiation (365 nm, 10 min)): 21.6 ± 2.8 nM | increase of HDAC6 inhibition upon irradiation with UV light (human recombinant HDAC6; irradiated vs non-irradiated): 37 fold | IC50 (human recombinant HDAC6; without UV irradiation): 794 ± 74.7 nM | early and late apoptosis vs DMSO control (A2780 cells; after light activation): increased apoptosis levels which were comparable to compound I | early and late apoptosis vs DMSO control (A2780 cells; without UV irradiation): no significant increase in early and late apoptosis

CN(C)c1ccc(C(=O)N(CC(=O)NCc2ccccc2)Cc2ccc(C(=O)NO)cc2)cc1 [I, N-[2-(benzylamino)-2-oxoethyl]-4-(dimethylamino)-N-[4-(hydroxycarbamoyl)-benzyl]-benzamide]
IC50 (human recombinant HDAC6; without UV irradiation): 13.1 ± 0.9 nM | early and late apoptosis vs DMSO control (A2780 cells; without UV irradiation): significant increase in early and late apoptotic cells

From PMC10056348, “Photocaged Histone Deacetylase Inhibitors as Prodrugs in Targeted Cancer Therapy” (Pharmaceuticals, 2023)
